Data reported in ChEMBL document CHEMBL1201862, “PubChem BioAssay data set” (2004).
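Protocol summary: plate cells (96-well), add compound at 5 concentrations, incubate 48 h, interpolate endpoints linearly. GI50 is the concentration that inhibits growth by half.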 Active and inactive are the calls of the source. Rule as the data show it: active = GI50 up to about 1.1 µM and inactive = higher.

Key:
Assay in all cases: inhibition of tumour cell growth, NCI panel, 48 h
COLO 205 = tested on: COLO 205
SW-620 = tested on: SW-620
OVCAR-3 = tested on: OVCAR-3
KM12 = tested on: KM12
EKVX = tested on: EKVX
UACC-257 = tested on: UACC-257
MDA-MB-231 = tested on: MDA-MB-231
OVCAR-8 = tested on: OVCAR-8
MCF7 = tested on: MCF7
MOLT-4 = tested on: MOLT-4
RXF 393 = tested on: RXF 393
SF-268 = tested on: SF-268
MDA-MB-435 = tested on: MDA-MB-435
HCT-116 = tested on: HCT-116
PC-3 = tested on: PC-3
Hs-578T = tested on: Hs-578T
T47D = tested on: T47D
OVCAR-4 = tested on: OVCAR-4
IGROV-1 = tested on: IGROV-1

SMILES	GI50 (COLO 205)	GI50 (SW-620)	GI50 (OVCAR-3)	GI50 (KM12)	GI50 (EKVX)	GI50 (UACC-257)	GI50 (MDA-MB-231)	GI50 (OVCAR-8)	GI50 (MCF7)	GI50 (MOLT-4)	GI50 (RXF 393)	GI50 (SF-268)	GI50 (MDA-MB-435)	GI50 (HCT-116)	GI50 (PC-3)	GI50 (Hs-578T)	GI50 (T47D)	GI50 (OVCAR-4)	GI50 (IGROV-1)
CCN1CCN(c2nc3ccccc3c3c2CCOc2ccccc2-3)CC1	17.4 µM (inactive)	24.9 µM (inactive)	> 69 µM (inactive)	24.9 µM (inactive)	> 100 µM (inactive)	18.1 µM (inactive)	23.5 µM (inactive)	> 45.1 µM (inactive)	> 39.8 µM (inactive)	10.6 µM (inactive)	25.2 µM (inactive)	39.1 µM (inactive)	24.9 µM (inactive)	29.3 µM (inactive)	32.7 µM (inactive)	29.9 µM (inactive)	35.5 µM (inactive)	> 53.2 µM (inactive)	22.2 µM (inactive)
O=C1C(SCCO)=C(SCCO)C(=O)c2ccccc21	1.77 µM (inactive)	0.695 µM (active)	0.986 µM (active)	1.75 µM (inactive)	1.6 µM (inactive)	1.29 µM (inactive)	1.48 µM (inactive)	0.579 µM (active)	0.791 µM (active)	0.0794 µM (active)	1.33 µM (inactive)	1.56 µM (inactive)	0.186 µM (active)	1.86 µM (inactive)	2.1 µM (inactive)	1.17 µM (inactive)	1.22 µM (inactive)	0.252 µM (active)	0.467 µM (active)
COc1cccc(C2c3cc4c(cc3OC(C)(N3CCCC3)C2C)OCO4)c1 (configuration not stated)	11.4 µM (inactive)	6.55 µM (inactive)	4.89 µM (inactive)	4 µM (inactive)	24.6 µM (inactive)	18.2 µM (inactive)	7.78 µM (inactive)	20.9 µM (inactive)	9.51 µM (inactive)	51.3 µM (inactive)	14 µM (inactive)	27.4 µM (inactive)	4.19 µM (inactive)	7.62 µM (inactive)	16.3 µM (inactive)	3.07 µM (inactive)	11.2 µM (inactive)	14.3 µM (inactive)	8.38 µM (inactive)
CCC#CCCCCCCCCC(F)C(=O)O (configuration not stated)	> 100 µM (inactive)	> 100 µM (inactive)	> 100 µM (inactive)	> 100 µM (inactive)	> 100 µM (inactive)	> 100 µM (inactive)	> 100 µM (inactive)	> 100 µM (inactive)	> 100 µM (inactive)	> 100 µM (inactive)	> 100 µM (inactive)	> 100 µM (inactive)	> 100 µM (inactive)	> 100 µM (inactive)	> 100 µM (inactive)	> 100 µM (inactive)	> 100 µM (inactive)	> 100 µM (inactive)	> 100 µM (inactive)
Clc1ccc(COC(Cn2ccnc2)c2ccc(Cl)cc2Cl)cc1 (configuration not stated) [ECONAZOLE NITRATE]	8.28 µM (inactive)	11.3 µM (inactive)	11.5 µM (inactive)	12.1 µM (inactive)	12.1 µM (inactive)	10.4 µM (inactive)	12.4 µM (inactive)	14.8 µM (inactive)	8.26 µM (inactive)	2.75 µM (inactive)	14.1 µM (inactive)	14.7 µM (inactive)	9.68 µM (inactive)	6.67 µM (inactive)	9.16 µM (inactive)	17.1 µM (inactive)	5.42 µM (inactive)	8.3 µM (inactive)	12.2 µM (inactive)
CC1Cc2cc(O)ccc2C2[C@@H]1C1CC[C@H](O)[C@@]1(C)C[C@@H]2O[N+](=O)[O-] (some centres not stated)	22.3 µM (inactive)	6.76 µM (inactive)	9.12 µM (inactive)	19.7 µM (inactive)	21.4 µM (inactive)	13 µM (inactive)	12.1 µM (inactive)	16.8 µM (inactive)	4.86 µM (inactive)	7.48 µM (inactive)	2.73 µM (inactive)	16.2 µM (inactive)	2.52 µM (inactive)	5.18 µM (inactive)	20.1 µM (inactive)	3.21 µM (inactive)	9.55 µM (inactive)	26.7 µM (inactive)	25.2 µM (inactive)
O=C(c1c(F)c(F)c(F)c(F)c1F)N1CCN(C(=O)c2c(F)c(F)c(F)c(F)c2F)C1=S	7.01 µM (inactive)	1.84 µM (inactive)	5.08 µM (inactive)	6 µM (inactive)	13 µM (inactive)	8.34 µM (inactive)	6.75 µM (inactive)	5.05 µM (inactive)	5.43 µM (inactive)	2.77 µM (inactive)	2.62 µM (inactive)	11.3 µM (inactive)	3.3 µM (inactive)	2.84 µM (inactive)	7.67 µM (inactive)	4.66 µM (inactive)	6.46 µM (inactive)	5.22 µM (inactive)	4.4 µM (inactive)
COc1ccccc1NC(=O)CC(=O)NN	> 100 µM (inactive)	> 100 µM (inactive)	> 100 µM (inactive)	> 100 µM (inactive)	> 100 µM (inactive)	> 100 µM (inactive)	> 100 µM (inactive)	> 100 µM (inactive)	> 100 µM (inactive)	> 100 µM (inactive)	> 100 µM (inactive)	> 100 µM (inactive)	> 100 µM (inactive)	> 100 µM (inactive)	> 100 µM (inactive)	> 100 µM (inactive)	> 100 µM (inactive)	> 100 µM (inactive)	> 100 µM (inactive)
